Assay results published in paper PMC4757417, “Functional and Structural Analysis of a β-Glucosidase Involved in β-1,2-Glucan Metabolism in Listeria innocua” (PLoS ONE, 2016).
Where two headings read alike, the source gives them in different places.

Experiments:
Lin1840r [1] = target: T1, Lin1840r (Listeria innocua, UniProt Q92AS9); experiment: Inhibition kinetics of hydrolytic activity toward pNP-β-Glc; assay type: biochemical; details: substrate pNP-β-Glc
[2] = target: Aspergillus aculeatus BGL1 (AaBGL1); parameters: method as in PMID 23537284; details: cited from earlier work
Lin1840r [3] = target: T1, Lin1840r; experiment: Kinetic analysis of hydrolysis of β-linked gluco-oligosaccharides and pNP-β-Glc by WT Lin1840r; assay type: biochemical; details: for kcat relative to that for Sop2 / kcat relative to those for Sop2 and Lam2 / kcat/Km relative to that for Sop2: WT Lin1840r; for specific activity: Lin1840r, 0.1 mM substrate at 20°C
Lin1840r E473A mutant = experiment: Hydrolytic activity of E473A mutant toward pNP-β-Glc
Lin1840r D270A mutant = experiment: Hydrolytic activity of D270A mutant toward pNP-β-Glc
[4] = test system: JMB19063 (metagenomic GH3 β-glucosidase from compost); parameters: method as in PMID 23580647; details: 0.1 mM substrate, Cel2 at 50°C, estimated from the substrate consumption; cited from earlier work
[5] = test system: Flavobacterium meningosepticum GH3 β-glucosidase (FmBGL); parameters: method as in PMID 11851422; details: cited from earlier work

T1 sequence (Q92AS9 entry or part of it): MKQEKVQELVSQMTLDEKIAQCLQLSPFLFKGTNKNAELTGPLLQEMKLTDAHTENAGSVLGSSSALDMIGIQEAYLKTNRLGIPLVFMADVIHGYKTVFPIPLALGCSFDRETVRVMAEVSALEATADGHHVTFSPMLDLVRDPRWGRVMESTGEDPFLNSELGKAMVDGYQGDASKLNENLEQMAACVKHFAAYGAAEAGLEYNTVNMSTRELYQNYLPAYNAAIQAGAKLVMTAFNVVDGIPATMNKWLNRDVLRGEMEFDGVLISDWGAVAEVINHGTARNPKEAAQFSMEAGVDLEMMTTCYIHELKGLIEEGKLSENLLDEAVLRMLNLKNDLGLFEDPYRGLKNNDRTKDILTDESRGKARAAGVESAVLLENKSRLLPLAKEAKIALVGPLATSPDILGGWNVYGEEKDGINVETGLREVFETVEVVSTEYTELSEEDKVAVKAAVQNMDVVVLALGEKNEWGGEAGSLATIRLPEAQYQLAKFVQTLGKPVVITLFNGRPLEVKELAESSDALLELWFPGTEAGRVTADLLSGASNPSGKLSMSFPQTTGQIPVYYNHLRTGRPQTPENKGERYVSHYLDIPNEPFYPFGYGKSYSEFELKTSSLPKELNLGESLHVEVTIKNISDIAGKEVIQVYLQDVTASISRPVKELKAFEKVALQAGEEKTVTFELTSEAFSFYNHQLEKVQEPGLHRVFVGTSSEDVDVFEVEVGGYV

For OC[C@H]1NC[C@H](O)[C@@H](O)[C@@H]1O [DNJ, 1-deoxynojirimycin], the Ki (Lin1840r [1]; Ki) is given as 290 µM and the Ki [2] is given as 2.4 µM.
In the case of OC[C@H]1CNC[C@@H](O)[C@@H]1O [IFG, isofagomine D-tartrate], the Ki (Lin1840r [1]; read-out: Ki) is listed as 4.1 µM and the Ki [2] is listed as 14 µM.
With OC[C@H]1O[C@@H](O[C@H]2[C@H](O[C@H]3[C@H](O[C@H]4C(O)O[C@H](CO)[C@@H](O)[C@@H]4O)O[C@H](CO)[C@@H](O)[C@@H]3O)O[C@H](CO)[C@@H](O)[C@@H]2O)[C@H](O)[C@@H](O)[C@@H]1O (stereo partly shown) [Sop4] the “kcat relative to that for Sop2” value (Lin1840r [3]) was “less than one-tenth”.
For OC[C@H]1O[C@@H](O[C@H]2[C@H](O[C@H]3[C@H](O[C@H]4[C@H](O[C@H]5C(O)O[C@H](CO)[C@@H](O)[C@@H]5O)O[C@H](CO)[C@@H](O)[C@@H]4O)O[C@H](CO)[C@@H](O)[C@@H]3O)O[C@H](CO)[C@@H](O)[C@@H]2O)[C@H](O)[C@@H](O)[C@@H]1O (stereo partly shown) [Sop5], the “kcat relative to that for Sop2” value (Lin1840r [3]) was “less than one-tenth”.
With O=[N+]([O-])c1ccc(O[C@@H]2O[C@H](CO)[C@@H](O)[C@H](O)[C@H]2O)cc1 [pNP-β-Glc, p-nitrophenyl-β-D-glucopyranoside] the specific activity (Lin1840r [3]) was 1.12 U/mg, the hydrolytic activity (Lin1840r E473A mutant) was “no detectable hydrolytic activity” and the hydrolytic activity (Lin1840r D270A mutant) was “no detectable hydrolytic activity”. The specific activity [4] was 11.8 U/mg, the Km [5] was 490 µM and the kcat [5] was 39.1 s⁻¹.
For cellobiose [Cel2], the specific activity (Lin1840r [3]) was 8.9 × 10^−4 U/mg, the “kcat relative to those for Sop2 and Lam2” value (Lin1840r [3]) was “less than 1%” and the “kcat/Km relative to that for Sop2” value (Lin1840r [3]) was “less than 0.05%”. For the same compound, the specific activity [4] was 0.077 U/mg and the “activity lower than toward pNP-β-Glc” value ([5]; judged from preliminary results) was “at least 100 times”.
For gentiobiose [Gen2], the “kcat relative to those for Sop2 and Lam2” value (Lin1840r [3]) was “less than 1%” and the “kcat/Km relative to that for Sop2” value (Lin1840r [3]) was “less than 0.05%”.
